In patent US6093742A, “Inhibitors of p38” (Vertex Pharmaceuticals, Inc., priority 1997, dated 2000):

Target: T1, p38 (Homo sapiens, UniProt Q16539)
T1 construct: made in house; host or cells: Trichoplusia ni (Tn-368) High-Five insect cells infected with recombinant baculovirus (virus made in Sf9)
Assay: p38 inhibition assay: inhibition of phosphorylation of EGF receptor peptide
Assay type: biochemical
Settings: activated p38 (5 nM), EGF receptor peptide 200 μM, ATP 100 μM, 30 min at 30° C., pH 7.6, HPLC
Description: Two splice variants of human p38 kinase, CSBPl and CSBP2, have been identified. Specific oligonucleotide primers were used to amplify the coding region of CSBP2 cDNA using a HeLa cell library (Stratagene) as a template. The polymerase chain reaction product was cloned into the pET-15b vector (Novagen). The baculovirus transfer vector, pVL-(His)6-p38 was constructed by subcloning a XbaI-BamHI fragment of pET15b-(His)6-p38 into the complementary sites in plasmid pVL1392 (Pharmingen).
P38 was activated by combining 0.5 mg/ml p38 with 0.005 mg/ml DD-double mutant MKK6 in Buffer B+10 mM MgCl2, 2 mM ATP, 0.2 mM Na2VO4 for 30 minutes at 20° C. The activation mixture was then loaded onto a 1.0×10 cm MonoQ column (Pharmacia) and eluted with a linear 20 column volume gradient to 1.0 M NaCl in Buffer B. The activated p38 eluted after the ADP and ATP. The activated p38 peak was pooled and dialyzed against buffer B+0.2 mM Na2VO4 to remove the NaCl. The dialyzed protein was adjusted to 1.1M potassium phosphate by addition of a 4.0M stock solution and loaded onto a 1.0×10 cm HIC (Rainin Hydropore) column previously equilibrated in Buffer D (10% glycerol, 20 mM β-glycerophosphate, 2.0 mM DTT)+1.1MK2HPO4. The protein was eluted with a 20 column volume linear gradient to Buffer D+50 mM K2HPO4. The double phosphorylated p38 eluted as the main peak and was pooled for dialysis against Buffer B+0.2 mM Na2VO4. The activated p38 was stored at -70° C.
Inhibition of Phosphorylation of EGF Receptor Peptide
This assay was carried out in the presence of 10 mM MgCl2, 25 mM β-glycerophosphate, 10% glycerol and 100 mM HEPES buffer at pH 7.6. For a typical IC50 determination, a stock solution was prepared containing all of the above components and activated p38 (5 nM). The stock solution was aliquotted into vials. A fixed volume of DMSO or inhibitor in DMSO (final concentration of DMSO in reaction was 5%) was introduced to each vial, mixed and incubated for 15 minutes at room temperature. EGF receptor peptide, […], a phosphoryl acceptor in p38-catalyzed kinase reaction (1), was added to each vial to a final concentration of 200 μM. The kinase reaction was initiated with ATP (100 μM) and the vials were incubated at 30° C. After 30 minutes, the reactions were quenched with equal volume of 10% trifluoroacetic acid (TFA).
The phosphorylated peptide was quantified by HPLC analysis. Separation of phosphorylated peptide from the unphosphorylated peptide was achieved on a reverse phase column (Deltapak, 5 μm, C18 100D, part no. 011795) with a binary gradient of water and acteonitrile, each containing 0.1% TFA. IC50 (concentration of inhibitor yielding 50% inhibition) was determined by plotting the % activity remaining against inhibitor concentration.

T1 sequence (Q16539 whole entry): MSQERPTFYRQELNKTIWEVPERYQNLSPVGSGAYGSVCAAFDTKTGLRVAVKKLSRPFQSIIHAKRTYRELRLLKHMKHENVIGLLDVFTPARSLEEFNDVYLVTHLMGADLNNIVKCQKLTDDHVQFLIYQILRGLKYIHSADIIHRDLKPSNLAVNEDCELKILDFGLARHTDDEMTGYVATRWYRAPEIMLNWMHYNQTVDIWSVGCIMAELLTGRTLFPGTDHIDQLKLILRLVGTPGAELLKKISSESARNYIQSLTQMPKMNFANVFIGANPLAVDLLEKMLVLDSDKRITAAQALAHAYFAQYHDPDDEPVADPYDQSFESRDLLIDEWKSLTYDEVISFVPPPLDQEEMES

Row | Structure (SMILES) | IC50 [nM]
1 | COc1cc(OC)c(NC(=O)Nc2ccc(F)cc2)cc1Cl [Compound 29] | 1450
2 | CCOc1ccccc1NC(=O)Nc1ccc(Cl)c(Cl)c1 [Compound 121] | 2200
3 | COc1cc(OC)c(NC(=O)Nc2ccc3c(c2)OCO3)cc1Cl [Compound 40] | 1500
4 | COc1cc(OC)c(NC(=O)Nc2cc(C)ccc2Cl)cc1Cl [Compound 37] | 5100
5 | O=C(Nc1ccccc1)Nc1ccc(Cl)c(Cl)c1 [Compound 62] | 5600
6 | COc1cc(OC)c(NC(=O)Nc2ccccc2)cc1Cl [Compound 12] | 380
7 | COc1cc(OC)c(NC(=O)Nc2ccc(Cl)c(Cl)c2)cc1Cl [Compound 24] | 500
8 | COc1cc(OC)c(NC(=O)Nc2cccc(Oc3ccccc3)c2)cc1Cl [Compound 22] | 1900
9 | O=C(Nc1ccc(Cl)c(Cl)c1)Nc1cccc2cccnc12 [Compound 131] | 6300
10 | COc1cc(C)cc(NC(=O)Nc2ccc(Cl)c(Cl)c2)c1 [Compound 118] | 14700
11 | NC(=O)c1ccccc1NC(=O)Nc1ccc(Cl)c(Cl)c1 [Compound 107] | 100
12 | COc1cc(Cl)c(C)cc1NC(=O)Nc1ccccc1 [Compound 61] | 140
13 | COc1cc(OC)c(NC(=O)Nc2ccc(F)c(F)c2)cc1Cl [Compound 33] | 1820
14 | COc1cc(OC)c(NC(=O)Nc2cccc(F)c2)cc1Cl [Compound 35] | 630
15 | Cc1cc(C)c(NC(=O)Nc2ccccc2)cc1C [Compound 10] | 4200
16 | COc1cc(OC)c(NC(=O)Nc2ccccc2F)cc1Cl [Compound 31] | 500

Row | Structure (SMILES) | IC50 [nM]
17 | COc1cc([N+](=O)[O-])c(C)cc1NC(=O)Nc1ccccc1 [Compound 13] | 140
18 | COc1cc(OC)c(NC(=O)Nc2ccc(Oc3ccccc3)cc2)cc1Cl [Compound 20] | 8000
19 | O=C(Nc1ccc(Cl)c(Cl)c1)Nc1ccc2c(c1)OCCO2 [Compound 126] | 5600
20 | COc1cc(OC)c(NC(=O)Nc2ccccc2)cc1Cl [Compound 25] | 1000
21 | COc1cc(OC)c(NC(=O)N(CC(=O)O)c2ccccc2)cc1Cl [Compound 34] | 19000
22 | O=C(Nc1cccc(C(=O)O)c1)Nc1ccc(Cl)c(Cl)c1 [Compound 63] | 5800
23 | O=C(Nc1ccc(Cl)c(Cl)c1)Nc1ccccc1Cl [Compound 122] | 15100
24 | Cc1cc(NC(=O)Nc2ccccc2)c(Cl)cc1F [Compound 15] | 5800
25 | O=C(Nc1ccc(Cl)c(Cl)c1)Nc1ccc(Br)cc1C(=O)O [Compound 125] | 8400
26 | COc1cc(OC)c(NC(=O)Nc2ccc(Cl)cc2F)cc1Cl [Compound 30] | 1200
27 | COc1cc(OC)c(NC(=O)Nc2ccccc2O)cc1Cl [Compound 28] | 7400
28 | Cc1cc(Cl)c([N+](=O)[O-])cc1NC(=O)Nc1ccccc1 [Compound 3] | 370
29 | O=C(Nc1ccc(Cl)c(Cl)c1)Nc1ccc(Cl)c(Cl)c1 [Compound 64] | 130
30 | COC(=O)c1ccccc1NC(=O)Nc1ccc(Cl)c(Cl)c1 [Compound 119] | 6300
31 | COc1cc(Cl)c(C)cc1NC(=O)Nc1ccccc1 [Compound 4] | 100
